These results are taken from patent US20040072903A1, “Carboxyalkylether-acat inhibitors combinations” (priority 2002, published 2004).

One assay concerns Chow-Fed Rat. As to the kind of experiment: Effects of Treatment on Lipid and Lipoprotein Parameters in the Chow-Fed Rat. More on the design: TG (Triglyceride) / Cholesterol (Total cholesterol) / VLDL (Very low-density cholesterol) / LDL (Low-density cholesterol) / HDL (High-density cholesterol): unit not given here. Type of assay: in vivo.
For another assay, the system named is man. As to conditions: in man, Helsinki Heart Study; cited from earlier work.

Structures are written as SMILES.

`CC(C)c1cc(C(C)C)c(CC(=O)NS(=O)(=O)Oc2c(C(C)C)cccc2C(C)C)c(C(C)C)c1` [Avisimbe]: in the assay on Chow-Fed Rat (10 mg/kg), the “Cholesterol (Total cholesterol)” value is 36 ± 2.3; the “HDL (High-density cholesterol)” value turned out to be 19.5 ± 1.7; the “HDL/VLDL + LDL (HDL divided by the sum of VLDL and LDL)” value worked out at 1.2 ± 0.1; the “LDL (Low-density cholesterol)” value is listed as 12.0 ± 1.1. Also, in the assay with Chow-Fed Rat (10 mg/kg), the “TG (Triglyceride)” value is 85 ± 16.8 and the “VLDL (Very low-density cholesterol)” value is reported as 3.9 ± 0.7. For the same compound, in the assay on Chow-Fed Rat (30 mg/kg), the “Cholesterol (Total cholesterol)” value is 37 ± 2.9; the “HDL (High-density cholesterol)” value was determined as 22.2 ± 1.8; the “HDL/VLDL + LDL (HDL divided by the sum of VLDL and LDL)” value was 1.6 ± 0.1; the “LDL (Low-density cholesterol)” value was 12.0 ± 0.8. In addition, in the assay on Chow-Fed Rat (30 mg/kg), the “TG (Triglyceride)” value is reported as 65 ± 12.9 and the “VLDL (Very low-density cholesterol)” value stood at 2.1 ± 0.6.
As for `CC(C)(CCCCOCCCCC(C)(C)C(=O)O)C(=O)O` [CI-1027], in the assay on Chow-Fed Rat (3 mg/kg), the “Cholesterol (Total cholesterol)” value is listed as 40 ± 1.4; the “HDL (High-density cholesterol)” value turned out to be 28 ± 1.0; the “HDL/VLDL + LDL (HDL divided by the sum of VLDL and LDL)” value came to 2.4 ± 0.1; the “LDL (Low-density cholesterol)” value amounted to 9.0 ± 0.5. In addition, in the assay on Chow-Fed Rat (3 mg/kg), the “TG (Triglyceride)” value was found to be 70 ± 2.8 and the “VLDL (Very low-density cholesterol)” value is on record as 2.7 ± 0.3. Besides, in the assay with Chow-Fed Rat (10 mg/kg), the “Cholesterol (Total cholesterol)” value was 89 ± 8.5; the “HDL (High-density cholesterol)” value was 76 ± 7.1; the “HDL/VLDL + LDL (HDL divided by the sum of VLDL and LDL)” value is 6.8 ± 0.7; the “LDL (Low-density cholesterol)” value is recorded as 9.1 ± 1.1. In the assay on Chow-Fed Rat (10 mg/kg), the “TG (Triglyceride)” value worked out at 60 ± 8.8 and the “VLDL (Very low-density cholesterol)” value is 2.8 ± 0.8. In the assay with Chow-Fed Rat (30 mg/kg), the “Cholesterol (Total cholesterol)” value stood at 119 ± 21; the “HDL (High-density cholesterol)” value is 100 ± 14.8; the “HDL/VLDL + LDL (HDL divided by the sum of VLDL and LDL)” value was 9.4 ± 2.7; the “LDL (Low-density cholesterol)” value is given as 17.6 ± 6.1. In addition, in the assay on Chow-Fed Rat (30 mg/kg), the “TG (Triglyceride)” value turned out to be 27 ± 2.0 and the “VLDL (Very low-density cholesterol)” value worked out at 0.7 ± 0.2.
In the case of `Cc1ccc(C)c(OCCCC(C)(C)C(=O)O)c1` [gemfibrozil], in the assay on man, the HDL-C result was “increased”, the LDL-C entry was “decreased” and the “incidence of coronary artery disease” value is listed as “reduced”.
